Measured values published in US11441122B2, “Regulatory T cell epitopes” (EpiVax, Inc., priority 2017, dated 2022).
Values joined by “and” are separate entries in the source; they are usually repeats but may differ in a detail not shown here. Identical values can stand only once.

How the values were obtained:
Class II HLA alleles = experiment: Soluble HLA competition binding assay, panel of five alleles (summary statements); parameters: species or system human
Procedure: HLA Binding Assay. Binding activity was analyzed at EpiVax (Providence, R.I.). The binding assay used (Steere A C et al., (2006), J Exp Med, 2003(4):961-71) yielded an indirect measure of peptide-MHC affinity. Soluble HLA molecules were loaded onto a 96-well plate with the unlabeled experimental Tregitopes and labeled control peptide. Once the binding mixture reached steady equilibrium (at 24 hours), the HLA-Tregitope complexes were captured on an ELISA plate coated with anti-human DR antibody and detected with a Europium-linked probe for the label (PerkinElmer, Waltham, Mass.). Time-resolved fluorescence measuring bound labeled control peptide is assessed by a SpectraMax® M5 unit (Spectramax, Radnor, Pa.). Binding of experimental Tregitopes was expressed as the percent inhibition of the labeled control peptide (experimental fluorescence/control fluorescence multiplied by 100).
The experimental Tregitopes were solvated in DMSO. The diluted Tregitopes were then mixed with binding reagents in aqueous buffering solution, yielding a range of final concentrations from 100,000 nM down to 100 nM. Tregitopes were then assayed against a panel of five common Class II HLA alleles: HLA-DRB1*0101, HLA-DRB1*0301, HLA-DRB1*0701, HLA-DRB1*1101, and HLA-DRB1*1501. […]

[1] = test system: CD4+ effector memory T cells; format: cell-based, human
[2] = test system: CD4+CD25+ FoxP3+ regulatory T cells; format: cell-based, human
[3] = test system: T cells in PBMCs from lupus patients; conditions: cited from earlier work

**Q.** Which HLA binding profile (Class II HLA alleles) does the source give for “EKDIHSGLIGPLLI (listed as Homo sapiens) [SEQ ID NO: 6]” here?
**A.** The HLA binding profile was “highly-restricted HLA binding profiles”.

**Q.** For “FAVFDENKSWYLEDN (listed as Homo sapiens) [SEQ ID NO: 4]”, which HLA binding profile (Class II HLA alleles) is on record?
**A.** Its HLA binding profile is “highly-restricted HLA binding profiles”.

**Q.** Which “CD4+ T cell activation and proliferation of Teff responding to TT” value [1] does the source give for “IHSIHFSGHVFTVRK (listed as Homo sapiens) [SEQ ID NO: 2]” here?
**A.** The value was “inhibited both CD4+ T cell memory responses”.

**Q.** What about the “CD4+ T cell activation reduced by” value [1] of the same sequence?
**A.** Its value is 70% and 50%.

**Q.** For “KIVFKNMASRPYSIY (listed as Homo sapiens) [SEQ ID NO: 3, Factor V derived peptide, used as negative control peptide]”, which “relative proportion of highly proliferative regulatory T cells (CFSE low FoxP3+) among CD25+ Granzyme B+ CD4+ T cells” value [2] is on record?
**A.** Its value is “no significant effect”.

**Q.** And the “activated (CD25 high) proliferating (CFSE low) CD4 T cells stimulated by Tetanus Toxoid” value [1]?
**A.** The value was “no significant inhibitory effect”.

**Q.** And the “activated effector CD4+ T cells (CD4+/CD25-high/FoxP3-intermediate) reacting to Tetanus Toxoid” value [1]?
**A.** The value was “no appreciable effect”.

**Q.** What about the “proliferation of CD4- cell population” value [1] of the same sequence?
**A.** Its value is “little inhibitory effect”.

**Q.** And the “proliferation of total CD4+ T cells (CFSE low)” value [1]?
**A.** The value was “little to no effect”.

**Q.** With “RIHMVYSKRSGKPRGYAFIEY (listed as Homo sapiens) [peptide 131-151]” as the sequence, how does the “randomly selected lupus patients whose PBMCs contain T cells that proliferate in response to the peptide” value [3] read?
**A.** The value was 40%.
